Source: patent publication US4370340A, “Benzothiazol-2-one-3-alkanoic acids and esters and aldose reductase inhibiting compositions thereof” (Fujisawa Pharmaceutical Co., Ltd., priority 1979, dated 1983)

Biological target: T1, rabbit lens aldose reductase (Oryctolagus cuniculus, UniProt P15122)
T1 construct: aldose reductase prepared from rabbit lens; from tissue; host or cells: rabbit lens
Assay: Inhibitory effect on rabbit lens aldose reductase
Format: biochemical
Conditions: not given

Row | Compound | IC50 [µM]
1 | O=C(O)Cn1c(=O)sc2cc(Cl)ccc21 [compound 12] | 0.41

Same assay, conditions: aldose reductase prepared from rabbit lens; graphically calculated from inhibitory effect at various concentrations; read-out: 50% Inhibitory concentration (IC50)

Row | Compound | IC50 [µM]
2 | O=C(O)Cn1c(=O)sc2cc(Oc3ccccc3)ccc21 [Test Compound 3, 2-Oxo-6-phenoxy-3-benzothiazolineacetic acid] | 0.69
3 | O=C(O)Cn1c(=O)sc2c(Cl)c(-c3ccccc3)ccc21 [Test Compound 5, 2-Oxo-6-phenyl-7-chloro-3-benzothiazolineacetic acid] | 0.12
4 | O=C(O)Cn1c(=O)sc2cc(C3CCCCC3)c(Cl)cc21 [Test Compound 6, 2-Oxo-5-chloro-6-cyclohexyl-3-benzothiazolineacetic acid] | 0.14
5 | O=C(O)Cn1c(=O)sc2cc(Br)c(Cl)cc21 [Test Compound 8, 2-Oxo-5-chloro-6-bromo-3-benzothiazolineacetic acid] | 0.05
6 | O=C(O)Cn1c(=O)sc2ccc(Cl)cc21 [Test Compound 10, 2-Oxo-5-chloro-3-benzothiazolineacetic acid] | 0.2
7 | O=C(O)CN1C(=O)C(=O)c2ccc(Cl)cc21 [Test Compound 13, 2,3-dioxo-6-chloro-1-indolineacetic acid] | 0.3
8 | O=C(O)Cn1c(=O)sc2cc(Oc3ccccc3Cl)ccc21 [compound 4] | 0.27
9 | O=C(O)CN1C(=O)Cc2ccc(Cl)cc21 [compound 9] | 0.27
10 | O=C(O)Cn1c(=O)oc2ccc(Cl)cc21 [compound 11] | 0.25
11 | O=C(O)Cn1c(=O)sc2cc([N+](=O)[O-])c(Cl)cc21 [compound 16] | 0.12
12 | Nc1cc2sc(=O)n(CC(=O)O)c2cc1Cl [compound 17] | 0.1

The next lines start with the values.

Row | IC50 [µM] | Compound
13 | 0.05 | O=C(O)Cn1c(=O)sc2cc(Oc3ccccc3)c(Cl)cc21 [Test Compound 1, 2-Oxo-5-chloro-6-phenoxy-3-benzothiazolineacetic acid]
14 | 0.038 | O=C(O)Cn1c(=O)sc2cc(Cl)c(Cl)cc21 [Test Compound 15, 2-Oxo-5,6-dichloro-3-benzothiazolineacetic acid]
15 | 0.029 | O=C(O)Cn1c(=O)sc2cc(-c3ccccc3)c(Cl)cc21 [compound 2]
16 | 0.049 | O=C(O)Cn1c(=O)oc2cc(-c3ccccc3)c(Cl)cc21 [compound 7]
17 | 0.033 | Cc1cc2c(cc1-c1ccccc1)sc(=O)n2CC(=O)O [compound 14]
